From US20100304363A1 (E[…] TELECOMM[…] INSTITUTE, priority 2009, published 2010)

Assays:
[1] = system: M-Type antigen (SARS coronavirus protein antigen, ProSci); format: binding
[2] = system: E-type antigen (SARS coronavirus protein antigen, ProSci); format: binding

Row | Substance | M (mean value) [1] | M-Type Ranking [1] | E Value [2] | E-Type Ranking [2]
1 | Ser-Asp | 0.091 | 9 | 0.136 | 23
2 | Cys-Asp | 0.144 | 3 | 0.326 | 4
3 | Arg-Phe | 0.072 | 21 | 0.183 | 9
4 | Leu-Val | 0.088 | 10 | 0.147 | 21
5 | Phe-Met | 0.059 | 29 | 0.190 | 8
6 | Gln-Trp | 0.093 | 8 | 0.166 | 12
7 | Tyr-Trp | 0.063 | 26 | 0.090 | 30
8 | Phe-Tyr | 0.078 | 15 | 0.127 | 26
9 | Phe-Phe | 0.059 | 28 | 0.116 | 29
10 | Asp-Cys | 0.114 | 5 | 0.238 | 5
11 | Trp-Gln | 0.073 | 19 | 0.155 | 15
12 | Cys-Glu | 0.143 | 4 | 0.356 | 3
13 | Asp-Glu | 0.169 | 2 | 0.520 | 2
14 | Cys-Phe | 0.069 | 24 | 0.165 | 13
15 | Val-Met | 0.094 | 7 | 0.151 | 18
16 | Glu-Asp | 0.186 | 1 | 0.552 | 1
17 | Asp-Ser | 0.087 | 11 | 0.132 | 25
18 | Ser-Glu | 0.073 | 20 | 0.135 | 24
19 | Phe-Trp | 0.071 | 22 | 0.159 | 14
20 | Ile-Met | 0.074 | 18 | 0.139 | 22
21 | Glu-Ser | 0.111 | 6 | 0.198 | 6
22 | Tyr-Gln | 0.069 | 25 | 0.122 | 27
23 | Trp-Phe | 0.069 | 23 | 0.148 | 20
24 | Ala-Ile | 0.057 | 30 | 0.154 | 17
25 | Phe-Leu | 0.061 | 27 | 0.198 | 6
26 | Lys-Phe | 0.080 | 14 | 0.154 | 16
27 | Val-Ala | 0.077 | 17 | 0.118 | 28
28 | Ser-Cys | 0.087 | 12 | 0.149 | 19
29 | Phe-Arg | 0.080 | 13 | 0.167 | 11
